Reference: paper PMC3731320, “Identification of Benzimidazole Diamides as Selective Inhibitors of the Nucleotide-Binding Oligomerization Domain 2 (NOD2) Signaling Pathway” (PLoS ONE, 2013)

Test system: NOD2
Assay: MDP-stimulated IL-8 release in 293/hNOD2 cells (HTRF)
Format: cell-based, human
Conditions: Homo sapiens; MDP-stimulated IL-8 production assay in 293/hNOD2 cells; Figures 4 and 5; read-out: NOD2 IC50
Procedure: After 24 hours the amount of IL-8 secreted into the medium was determined by homogeneous time resolved fluorescence (HTRF) assay by the direct addition of a 1:1 mix of europium cryptate and XL665-conjugated anti-IL-8 antibodies according to the manufacturer's instructions (Cisbio).

| SMILES | IC50 [µM] |
| --- | --- |
| CN(CCc1nc2ccccc2n1CC(=O)Nc1ccc2occc2c1)C(=O)c1ccccc1 [Compound 36, N-(2-(1-(2-(benzofuran-5-ylamino)-2-oxoethyl)-1H-benzo[d]imidazol-2-yl)ethyl)-N-methylbenzamide] | 1.3 |
| Cc1ccc(C(=O)NCCc2nc3ccccc3n2CC(=O)Nc2ccc3c(c2)CCC3)cc1 [Compound 18, N-(2-(1-(2-((2,3-dihydro-1H-inden-5-yl)amino)-2-oxoethyl)-1H-benzo[d]imidazol-2-yl)ethyl)-4-methylbenzamide] | > 50 |
| Cc1cccc(C(=O)NCCc2nc3ccccc3n2CC(=O)Nc2ccc3c(c2)CCC3)c1 [Compound 21, N-(2-(1-(2-((2,3-dihydro-1H-inden-5-yl)amino)-2-oxoethyl)-1H-benzo[d]imidazol-2-yl)ethyl)-3-methylbenzamide] | > 50 |
| O=C(Cn1c(CCNC(=O)c2ccccc2)nc2ccccc21)Nc1ccc2c(c1)C(O)CC2 (centres unmarked) [Compound 9, N-(2-(1-(2-((3-hydroxy-2,3-dihydro-1H-inden-5-yl)amino)-2-oxoethyl)-1H-benzo[d]imidazol-2-yl)ethyl)benzamide] | 35.2 ± 9.1 |
| O=C(Cn1c(CCNC(=O)c2ccccc2)nc2ccccc21)Nc1ccc(Cl)c(Cl)c1 [Compound 8, N-(2-(1-(2-(3,4-dichlorophenylamino)-2-oxoethyl)-1H-benzo[d]imidazol-2-yl)ethyl)benzamide] | 3.3 ± 2.1 |
| CN(CCc1nc2ccccc2n1CC(=O)Nc1ccc2sccc2c1)C(=O)c1ccccc1 [Compound 34, N-(2-(1-(2-(benzo[b]thiophen-5-ylamino)-2-oxoethyl)-1H-benzo[d]imidazol-2-yl)ethyl)-N-methylbenzamide] | 0.6 ± 0.1 |
| O=C(Cn1c(CCNC(=O)c2cccc3ccccc23)nc2ccccc21)Nc1ccc2c(c1)CCC2 [Compound 15, N-(2-(1-(2-((2,3-dihydro-1H-inden-5-yl)amino)-2-oxoethyl)-1H-benzo[d]imidazol-2-yl)ethyl)-1-naphthamide] | 3.4 ± 0.2 |
| O=C(Cn1c(CCNC(=O)c2cccc(Cl)c2)nc2ccccc21)Nc1ccc2c(c1)CCC2 [Compound 22, 3-chloro-N-(2-(1-(2-((2,3-dihydro-1H-inden-5-yl)amino)-2-oxoethyl)-1H-benzo[d]imidazol-2-yl)ethyl)benzamide] | > 50 |
| O=C(Cn1c(CCNC(=O)c2ccccc2)nc2ccccc21)Nc1ccc2[nH]ccc2c1 [Compound 14, N-(2-(1-(2-(1H-indol-5-ylamino)-2-oxoethyl)-1H-benzo[d]imidazol-2-yl)ethyl)benzamide] | > 50 |
| O=C(Cn1c(CCNC(=O)c2ccccc2)nc2ccccc21)Nc1ccc2sccc2c1 [Compound 4, N-(2-(1-(2-(benzo[b]thiophen-5-ylamino)-2-oxoethyl)-1H-benzo[d]imidazol-2-yl)ethyl)benzamide] | 1.3 ± 0.02 |
| CC(C)c1cccc(NC(=O)Cn2c(CCNC(=O)c3ccccc3)nc3ccccc32)c1 [Compound 3, N-(2-(1-(2-((3-isopropylphenyl)amino)-2-oxoethyl)-1H-benzo[d]imidazol-2-yl)ethyl)benzamide] | 0.8 ± 0.5 |
| Cc1ccc(NC(=O)Cn2c(CCN(C)C(=O)c3ccccc3)nc3ccccc32)cc1C [Compound 37, N-(2-(1-(2-((3,4-dimethylphenyl)amino)-2-oxoethyl)-1H-benzo[d]imidazol-2-yl)ethyl)-N-methylbenzamide] | 1.6 ± 0.1 |
| O=C(Cn1c(CCNC(=O)c2ccccc2)nc2ccccc21)Nc1ccc2c(c1)NCC2 [Compound 12, N-(2-(1-(2-(indolin-6-ylamino)-2-oxoethyl)-1H-benzo[d]imidazol-2-yl)ethyl)benzamide] | > 50 |
| O=C(Cn1c(CCNC(=O)c2ccccc2)nc2ccccc21)Nc1ccc2c(c1)CCN2 [Compound 10, N-(2-(1-(2-(indolin-5-ylamino)-2-oxoethyl)-1H-benzo[d]imidazol-2-yl)ethyl)benzamide] | > 50 |
| COc1ccc2c(c1)nc(CCNC(=O)c1ccccc1)n2CC(=O)Nc1ccc2c(c1)CCC2 [Compound 26, N-(2-(1-(2-((2,3-dihydro-1H-inden-5-yl)amino)-2-oxoethyl)-5-methoxy-1H-benzo[d]imidazol-2-yl)ethyl)benzamide] | > 50 |
| O=C(Cn1c(CCNC(=O)c2ccccc2)nc2ccccc21)Nc1ccc2occc2c1 [Compound 7, N-(2-(1-(2-(benzofuran-5-ylamino)-2-oxoethyl)-1H-benzo[d]imidazol-2-yl)ethyl)benzamide] | 3.3 ± 0.9 |
| CN(CCc1nc2ccccc2n1CC(=O)Nc1ccc2ccccc2c1)C(=O)c1ccccc1 [Compound 32, N-methyl-N-(2-(1-(2-(naphthalen-2-ylamino)-2-oxoethyl)-1H-benzo[d]imidazol-2-yl)ethyl)benzamide] | 0.2 ± 0.01 |

| SMILES | IC50 [µM] |
| --- | --- |
| Cc1ccc2c(c1)nc(CCNC(=O)c1ccccc1)n2CC(=O)Nc1ccc2c(c1)CCC2 [Compound 25, N-(2-(1-(2-((2,3-dihydro-1H-inden-5-yl)amino)-2-oxoethyl)-5-methyl-1H-benzo[d]imidazol-2-yl)ethyl)benzamide] | 4.6 ± 1.9 |
| Cc1cccc2c1nc(CCNC(=O)c1ccccc1)n2CC(=O)Nc1ccc2c(c1)CCC2 [Compound 28, N-(2-(1-(2-((2,3-dihydro-1H-inden-5-yl)amino)-2-oxoethyl)-4-methyl-1H-benzo[d]imidazol-2-yl)ethyl)benzamide] | > 50 |
| O=C(Cn1c(CCNC(=O)c2ccccc2)nc2cc(Cl)ccc21)Nc1ccc2c(c1)CCC2 [Compound 23, N-(2-(5-chloro-1-(2-((2,3-dihydro-1H-inden-5-yl)amino)-2-oxoethyl) -1H-benzo[d]imidazol-2-yl)ethyl)benzamide] | 1.3 ± 0.1 |
| O=C(Cn1c(CCNC(=O)c2ccccc2)nc2ccccc21)Nc1ccc(OCc2ccccc2)cc1 [Compound 11, N-(2-(1-(2-((4-(benzyloxy)phenyl)amino)-2-oxoethyl)-1H-benzo[d]imidazol-2-yl)ethyl)benzamide] | > 50 |
| CN(CCc1nc2ccccc2n1CC(=O)N(C)c1ccc2c(c1)CCC2)C(=O)c1ccccc1 [Compound 30, N-(2-(1-(2-((2,3-dihydro-1H-inden-5-yl)(methyl)amino)-2-oxoethyl)-1H-benzo[d]imidazol-2-yl)ethyl)-N-methylbenzamide] | 17 ± 2 |
| Cc1ccccc1C(=O)NCCc1nc2ccccc2n1CC(=O)Nc1ccc2c(c1)CCC2 [Compound 17, N-(2-(1-(2-((2,3-dihydro-1H-inden-5-yl)amino)-2-oxoethyl)-1H-benzo[d]imidazol-2-yl)ethyl)-2-methylbenzamide] | 4.7 ± 0.5 |
| CN(C(=O)Cn1c(CCNC(=O)c2ccccc2)nc2ccccc21)c1ccc2c(c1)CCC2 [Compound 31, N-(2-(1-(2-((2,3-dihydro-1H-inden-5-yl)(methyl)amino)-2-oxoethyl)-1H-benzo[d]imidazol-2-yl)ethyl)benzamide] | 20 |
| O=C(Cn1c(CCNC(=O)c2ccccc2)nc2ccc(Cl)cc21)Nc1ccc2c(c1)CCC2 [Compound 24, N-(2-(6-chloro-1-(2-((2,3-dihydro-1H-inden-5-yl)amino)-2-oxoethyl)-1H-benzo[d]imidazol-2-yl)ethyl)benzamide] | 4.2 ± 0.1 |
| CN(CCc1nc2ccccc2n1CC(=O)Nc1ccc(Cl)c(Cl)c1)C(=O)c1ccccc1 [Compound 35, N-(2-(1-(2-((3,4-dichlorophenyl)amino)-2-oxoethyl)-1H-benzo[d]imidazol-2-yl)ethyl)-N-methylbenzamide] | 0.9 ± 0.2 |
| Cc1ccc(NC(=O)Cn2c(CCNC(=O)c3ccccc3)nc3ccccc32)cc1C [Compound 6, N-(2-(1-(2-(3,4-dimethylphenylamino)-2-oxoethyl)-1H-benzo[d]imidazol-2-yl)ethyl)benzamide] | 2.8 ± 0.1 |
| O=C(Cn1c(CCNC(=O)c2ccccc2Cl)nc2ccccc21)Nc1ccc2c(c1)CCC2 [Compound 16, 2-chloro-N-(2-(1-(2-((2,3-dihydro-1H-inden-5-yl)amino)-2-oxoethyl)-1H-benzo[d]imidazol-2-yl)ethyl)benzamide] | 3.8 ± 1.4 |
| COc1ccc2nc(CCNC(=O)c3ccccc3)n(CC(=O)Nc3ccc4c(c3)CCC4)c2c1 [Compound 27, N-(2-(1-(2-((2,3-dihydro-1H-inden-5-yl)amino)-2-oxoethyl)-6-methoxy-1H-benzo[d]imidazol-2-yl)ethyl)benzamide] | > 50 |
| O=C(Cn1c(CCNC(=O)c2ccc(Cl)c(Cl)c2)nc2ccccc21)Nc1ccc2c(c1)CCC2 [Compound 19, 3,4-dichloro-N-(2-(1-(2-((2,3-dihydro-1H-inden-5-yl)amino)-2-oxoethyl)-1H-benzo[d]imidazol-2-yl)ethyl)benzamide] | > 50 |
| O=C(Cn1c(CCNC(=O)c2ccccc2)nc2ccccc21)Nc1ccc(Oc2ccccc2)cc1 [Compound 13, N-(2-(1-(2-oxo-2-((4-phenoxyphenyl)amino)ethyl)-1H-benzo[d]imidazol-2-yl)ethyl)benzamide] | > 50 |
| O=C(Cn1c(CCNC(=O)c2cccc(C(F)(F)F)c2)nc2ccccc21)Nc1ccc2c(c1)CCC2 [Compound 20, N-(2-(1-(2-((2,3-dihydro-1H-inden-5-yl)amino)-2-oxoethyl)-1H-benzo[d]imidazol-2-yl)ethyl)-3-(trifluoromethyl)benzamide] | > 50 |
| O=C(Cn1c(CCNC(=O)c2ccccc2)nc2ccccc21)Nc1ccc2ccccc2c1 [Compound 5, N-(2-(1-(2-(naphthalen-2-ylamino)-2-oxoethyl)-1H-benzo[d]imidazol-2-yl)ethyl)benzamide] | 1.6 ± 1.3 |
| CC(C)c1cccc(NC(=O)Cn2c(CCN(C)C(=O)c3ccccc3)nc3ccccc32)c1 [Compound 33, N-(2-(1-(2-((3-isopropylphenyl)amino)-2-oxoethyl)-1H-benzo[d]imidazol-2-yl)ethyl)-N-methylbenzamide] | 0.3 ± 0.01 |

Test system: HCT116 cells
Assay: Uptake of MDP-rhodamine by HCT116 cells (fluorescence microscopy)
Format: cell-based, human
Conditions: GSK669 up to 20 μM, chlorpromazine 20 μM, 1–4 hour
Procedure: HCT116 cells seeded onto glass cover-slips at low density were pre-treated with GSK669 or the endocytosis inhibitor chlorpromazine for 30 minutes before addition of 2.5 μg/mL MDP-rhodamine. Live cells were viewed periodically over 6-hours incubation at 37 °C using a Nikon eclipse TE2000-E fluorescent inverted microscope fitted with a CCTV camera and rhodamine filter.

| SMILES | effect on uptake of Rhodamine-MDP into cells |
| --- | --- |
| CN(C)CCCN1c2ccccc2Sc2ccc(Cl)cc21 [chlorpromazine, reference compound] | intracellular punctate fluorescence did not develop |
